Measured values: patent publication US20180280400A1, “TRANSDERMAL ADMINISTRATION SYSTEM FOR USE IN THE TREATMENT OF CHRONIC BRONCHOPULMONARY DISEASES” (ABC FARMACEUTICI S.P.A., priority 2013, published 2018)

Tests used:
[1] = tested on: human keratinocyte cell lines (HACAT); assay: MTT cytotoxicity test, HACAT; assay type: cell-based
[2] = tested on: human endothelial cells from the umbilical vein (HUVEC); assay: MTT cytotoxicity test, HUVEC; assay type: cell-based
[3] = In vitro-ex vivo skin permeation across human epidermis, Franz diffusion cells; assay type: in vitro ADME; conditions: 4% w/v, up to 24 hours
Protocol: The Franz diffusion cells comprise two compartments, one containing the active ingredient (donor vehicle) and the other containing a receiving solution, separated by a slice of human epidermis. The vertical cells used in the actual experimental unit have a wider column than that in the original Franz type of diffusion cell, and the decanter shape was dispensed with. These have a diffusion area of 0.636 cm^2 and a receiving compartment of approximately 3.0 ml. The receiving volume in each cell is individually calibrated and equipped with a magnetic stirrer. Human epidermis was selected as the membrane for skin permeation studies. The skin used in the studies was obtained from the abdominal skin of a donor who underwent cosmetic surgery. The skin samples were prepared following an internal standard procedure. The full thickness of the skin was sealed in evacuated plastic bags and frozen at -20° C. within 6 hours of removal. Before the experiments the skin was thawed out at ambient temperature and excess fat was completely removed. […] The integrity of the skin was evaluated by measuring the impedance of each sample (Agilent LCR Meter 4263B). Subsequently the epidermis was mounted in the Franz diffusion cell, the receiving compartment of which was filled with saline solution (NaCl 0.9% w/v) filtered using a 0.22 μm filter (VWR, nylon membrane). […]

in vitro = conditions: dog, MDCK, pH 7.4
Protocol: (§1) MDCK cells were kept in Minimal Essential Medium Eagle (EMEM) containing 10% FBS, 2 nM of fresh L-glutamine and 2 nM of penicillin-streptomycin. The culture inserts were inseminated with 664000 cells per cm^2 (0.33 cm^2 per insert). The monolayers of MDCK were cultured for three days before use. The monolayers were washed with Hanks Balanced Salt Solution (HBSS+10 nM Hepes pH 7.4) transport medium; the electrical resistance of each monolayer was measured at 37° C. using a Millicell ERS-2 (Millipore). Background resistance values were subtracted from the resistance values of treated wells of monolayer. The resulting value was multiplied by the area of the membrane (0.33 cm^2) to calculate the transepithelial electrical resistance values (TEER (Ω cm^2)) for each monolayer. TEER values indicate the degree of confluence of the monolayer and the development of tight junctions. If the resistance was <200 Ω cm^2 the test was continued. MDCK monolayers having TEER values>200 Ω cm^2 were not used. The donor solutions in the transport test comprised 100 μM of test compound in the transport medium containing 100 nM of fluorescein isocyanate-dextran. The transport tests were performed using 0.250 ml of apical donor solution and 1 ml of basolateral acceptor solution (transport medium, pH 7.4). […] The monolayers were incubated with donor and acceptor solutions for 120 minutes at 37° C. The basolateral compartments were sampled after 120 minutes and analysed using LC-MS/MS, together with an aliquot of the donor solutions in the transport test (100 μM of the test compound) corresponding to (sample at time zero).
(§2) in which dQ/dt is the permeation velocity, CA is the initial concentration in the donor compartment and A is the surface area of the filter. […]
(§3) The integrated peak area for the LC-MS/MS chromatograms was used as the instrument response (INRE) for relative quantification of the test material.
(§4) The permeability of the test material was then evaluated by comparing the INRE for five replicates after two hours incubation, on the basis of the INRE response to the t0 samples.

[4] = tested on: human fibroblast cell lines (HFF); assay: MTT cytotoxicity test, HFF; assay type: cell-based
[5] = with chemical potentiating agents, including oleic acid; cited from earlier work

Protocol for MDCK monolayers: as §1, §2, §3, §4

permeability value (in words) (MDCK monolayers)	Papp A→B at 120 min, 100 µM (in vitro)	SMILES	cytotoxicity (MTT test) [1]	cytotoxicity (MTT test) [2]	skin permeability values (permeate over time) ([3]; aqueous solvent, FIG. 1)	skin permeability values (permeate over time) ([3]; triacetin solvent, FIG. 2)	cytotoxicity (MTT test) [4]	administered flow through human skin [5]
high permeability value	22.7 ×10⁻⁶ cm/s	Cn1c(=O)c2c(ncn2CC2OCCO2)n(C)c1=O [Doxofylline, 2-(7′-theophyllinemethyl)-1,3-dioxolane]	no cytotoxicity	no cytotoxicity	substantially higher than those for theophylline	substantially higher than those for theophylline	no cytotoxicity	
	6.52 ×10⁻⁶ cm/s	COCCc1ccc(OCC(O)CNC(C)C)cc1 (stereo not drawn) [Metoprolol, metoprolol]						
		Cn1c(=O)c2[nH]cnc2n(C)c1=O [Theophylline, theophylline]						insufficient
